Measurements reported in article PMC9676260, “Enzymatic properties of CARF-domain proteins in Synechocystis sp. PCC 6803” (Frontiers in Microbiology, 2022).
Values belong to the molecule of their own block, whether it stands above or below them.

Assays:
SyCsx1 [1] = target: T1, SyCsx1 (Synechocystis sp. PCC 6803, UniProt Q6ZED7); experiment: fluorogenic RNaseAlert cleavage; gel-based RNA cleavage; format: biochemical; conditions: allosteric activator binding the CARF domain; 300 nM cA4, 300 nM SyCsx1, 40 nM RNaseAlert substrate, 50 mM HEPES pH 7.5, 50 mM KCl, 1 mM DTT, 30 °C
T1 construct: gene slr7061; full-length, His-tagged (pQE-80), E. coli BL21(DE3); about 89 kDa by SEC, dimer; encoded on plasmid pSYSA, CRISPR2 (III-D) locus
T1 sequence (Q6ZED7 1-422): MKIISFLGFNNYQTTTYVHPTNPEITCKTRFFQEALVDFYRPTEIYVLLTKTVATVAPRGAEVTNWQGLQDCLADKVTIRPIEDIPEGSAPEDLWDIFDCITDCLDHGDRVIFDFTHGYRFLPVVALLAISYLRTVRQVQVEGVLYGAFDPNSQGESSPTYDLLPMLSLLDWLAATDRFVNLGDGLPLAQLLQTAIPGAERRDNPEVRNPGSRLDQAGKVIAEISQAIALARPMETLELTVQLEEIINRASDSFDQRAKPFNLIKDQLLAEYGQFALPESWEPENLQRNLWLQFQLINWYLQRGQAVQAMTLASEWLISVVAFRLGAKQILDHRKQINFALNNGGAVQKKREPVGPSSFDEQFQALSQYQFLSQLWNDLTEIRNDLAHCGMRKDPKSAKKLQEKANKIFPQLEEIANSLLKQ

SyCsm6 [2] = target: T2, SyCsm6 (Synechocystis sp. PCC 6803, UniProt Q6ZED6); experiment: LC-MS of cOA degradation products; coupled SyCsx1 activation assay; format: biochemical; conditions: ring nuclease; 667 nM cA4, 2 µM SyCsm6, 30 °C, 2 h
T2 construct: gene sll7062; full-length, His-tagged (pQE-80), E. coli BL21(DE3); encoded on plasmid pSYSA, CRISPR2 (III-D) locus
T2 sequence (Q6ZED6 1-371): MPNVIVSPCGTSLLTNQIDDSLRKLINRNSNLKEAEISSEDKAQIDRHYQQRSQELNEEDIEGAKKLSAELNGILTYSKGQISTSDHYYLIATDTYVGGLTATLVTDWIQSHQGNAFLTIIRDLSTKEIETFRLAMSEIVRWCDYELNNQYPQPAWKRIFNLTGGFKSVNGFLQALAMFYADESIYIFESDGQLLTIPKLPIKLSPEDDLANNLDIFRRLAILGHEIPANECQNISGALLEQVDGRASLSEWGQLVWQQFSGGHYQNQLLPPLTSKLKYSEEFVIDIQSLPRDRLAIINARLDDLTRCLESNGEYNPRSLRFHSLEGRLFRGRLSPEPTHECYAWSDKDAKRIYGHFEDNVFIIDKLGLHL

[3] = target: SyCsm6 (Csm6 homolog of the Synechocystis sp. PCC 6803 CRISPR2 type III-D system) (Synechocystis sp. PCC 6803); experiment: SEC; Superdex 200 10/300 column in 50 mM Tris pH 8.0, 150 mM NaCl, 5% glycerol; elution volume compared with the monomer's mass; monomer to dimer
SyCsm6 [4] = target: T2, SyCsm6; experiment: LC-MS of cOA degradation products; format: biochemical; conditions: ring nuclease; 667 nM cA6, 2 µM SyCsm6, 30 °C, 2 h
[5] = target: SyCsx1 (Csx1 homolog of the Synechocystis sp. PCC 6803 CRISPR2 type III-D system) (Synechocystis sp. PCC 6803); experiment: SEC; Superdex 200 10/300 column in 50 mM Tris pH 8.0, 150 mM NaCl, 5% glycerol; elution volume compared with the monomer's mass; monomer to dimer
SyCsx1 [6] = target: T1, SyCsx1; experiment: fluorogenic RNaseAlert cleavage; format: biochemical; conditions: activator; cFA4 preincubated at 20 nM (mock or with SyCsm6), then 300 nM SyCsx1, 20 nM RNaseAlert substrate, 30 °C

Molecule: Nc1ncnc2c1ncn2[C@@H]1O[C@@H]2COP(=O)(O)O[C@H]3[C@@H](O)[C@H](n4cnc5c(N)ncnc54)O[C@@H]3COP(=O)(O)O[C@H]3[C@@H](O)[C@H](n4cnc5c(N)ncnc54)O[C@@H]3COP(=O)(O)O[C@H]3[C@@H](O)[C@H](n4cnc5c(N)ncnc54)O[C@@H]3COP(=O)(O)O[C@H]2[C@H]1O [cA4]
fluorogenic RNaseAlert cleavage; gel-based RNA cleavage (SyCsx1 [1]): the addition of cA4 leads to a significant increase of the fluorescence signal
LC-MS of cOA degradation products; coupled SyCsx1 activation assay (SyCsm6 [2]): the substrate peak was gone and cA4 was converted to a product

stoichiometry N [3]: 2
Molecule: SyCsm6 (Csm6 homolog of the Synechocystis sp. PCC 6803 CRISPR2 type III-D system) (enzyme)

Molecule: Nc1ncnc2c1ncn2[C@@H]1O[C@@H]2COP(=O)(O)O[C@H]3[C@@H](O)[C@H](n4cnc5c(N)ncnc54)O[C@@H]3COP(=O)(O)O[C@H]3[C@@H](O)[C@H](n4cnc5c(N)ncnc54)O[C@@H]3COP(=O)(O)O[C@H]3[C@@H](O)[C@H](n4cnc5c(N)ncnc54)O[C@@H]3COP(=O)(O)O[C@H]3[C@@H](O)[C@H](n4cnc5c(N)ncnc54)O[C@@H]3COP(=O)(O)O[C@H]3[C@@H](O)[C@H](n4cnc5c(N)ncnc54)O[C@@H]3COP(=O)(O)O[C@H]2[C@H]1O [cA6]
LC-MS of cOA degradation products (SyCsm6 [4]): cA6 was cleaved to A2 > P and an additional product

stoichiometry N [5]: 2
Molecule: SyCsx1 (Csx1 homolog of the Synechocystis sp. PCC 6803 CRISPR2 type III-D system) (enzyme)

Molecule: Nc1ncnc2c1ncn2[C@@H]1O[C@@H]2COP(=O)(O)O[C@H]3[C@@H](F)[C@H](n4cnc5c(N)ncnc54)O[C@@H]3COP(=O)(O)O[C@H]3[C@@H](F)[C@H](n4cnc5c(N)ncnc54)O[C@@H]3COP(=O)(O)O[C@H]3[C@@H](F)[C@H](n4cnc5c(N)ncnc54)O[C@@H]3COP(=O)(O)O[C@H]2[C@H]1F [cFA4]
fluorogenic RNaseAlert cleavage (SyCsx1 [6]): cFA4 is a less potent activator of SyCsx1 as seen by the slower substrate turnover
